Experimental data reported in PubChem BioAssay (NCI).
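A five-concentration, 48-hour dose response in 96-well plates underlies each endpoint, interpolated linearly between surrounding concentrations. The concentration for full growth arrest is given as TGI.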

Tests used:
Assay in all cases: growth of human tumour cells (NCI), 48 h
COLO 205 colon = test system: COLO 205 colon
EKVX NSCLC = test system: EKVX NSCLC
HS 578T breast = test system: HS 578T breast
HT29 colon = test system: HT29 colon
KM12 colon = test system: KM12 colon
LOX IMVI melanoma = test system: LOX IMVI melanoma
MALME-3M melanoma = test system: MALME-3M melanoma
MCF7 breast = test system: MCF7 breast
MDA-MB-231 breast = test system: MDA-MB-231 breast
MDA-MB-435 = test system: MDA-MB-435
MDA-N = test system: MDA-N
NCI-H522 lung = test system: NCI-H522 lung
OVCAR-8 ovarian = test system: OVCAR-8 ovarian
RXF 393 renal = test system: RXF 393 renal
SF-295 CNS = test system: SF-295 CNS
SK-MEL-5 melanoma = test system: SK-MEL-5 melanoma
SN12C renal = test system: SN12C renal
SNB-75 CNS = test system: SNB-75 CNS
TK-10 renal = test system: TK-10 renal
U251 CNS = test system: U251 CNS

Structure (SMILES)	TGI (COLO 205 colon)	TGI (EKVX NSCLC)	TGI (HS 578T breast)	TGI (HT29 colon)	TGI (KM12 colon)	TGI (LOX IMVI melanoma)	TGI (MALME-3M melanoma)	TGI (MCF7 breast)	TGI (MDA-MB-231 breast)	TGI (MDA-MB-435)	TGI (MDA-N)	TGI (NCI-H522 lung)	TGI (OVCAR-8 ovarian)	TGI (RXF 393 renal)	TGI (SF-295 CNS)	TGI (SK-MEL-5 melanoma)	TGI (SN12C renal)	TGI (SNB-75 CNS)	TGI (TK-10 renal)	TGI (U251 CNS)
Cc1cccc(C(O)c2ccccn2)c1O (stereo not given)	> 100 µM	> 100 µM	> 100 µM	> 100 µM	> 100 µM	> 100 µM	> 100 µM	> 100 µM	> 100 µM	> 100 µM	> 100 µM	> 100 µM	> 100 µM	> 100 µM	> 100 µM	> 100 µM	> 100 µM	> 100 µM	> 100 µM	> 100 µM
CN(C)C(=S)SCc1ccccc1	> 100 µM	> 100 µM	> 100 µM	> 100 µM	> 100 µM	> 100 µM	> 100 µM	> 100 µM	> 100 µM	> 100 µM	> 100 µM	> 100 µM	> 100 µM	> 100 µM	> 100 µM	> 100 µM	> 100 µM	70.3 µM	> 100 µM	> 100 µM
